Test results from patent US12306176B2, “Microfluidic bi-directional migration assay” (Ohio State Innovation Foundation, priority 2017, dated 2025).

Assays:
Assay type in all cases: cell-based, human
MDA-MB-231 cells = assay: F-actin polarization ratio in the MBDM assay; settings: EGF gradient, absence of iEFs (untreated 0.34)
Procedure: This section reports on the effects of iEFs on the distribution of F-actin in cells migrating along the microtracks of the MBDM assay. To quantify the distribution of F-Actin, a quantity referred to herein as the polarization ratio (PR) was introduced, which has values between 0 and 1.
Cells in the devices were fixed in 3.7 (wt/wt) paraformaldehyde solution for 30 minutes. They were subsequently washed with 1×PBS three times. For F-actin labeling, we blocked the cells for 60 minutes in blocking buffer (0.1% Triton-X and 5% donkey serum in 1×PBS). Cells were then treated with Alexa Fluoro® 488-conjugated or 555-conjugated phalloidin for 60 minutes (1:40, ThermoFisher), again followed by a 1×PBS wash (three times, 10 minutes each). […]
Actin immunofluorescence images were acquired using a Nikon TE200 epifluorescence microscope (Nikon Instruments Inc.) under a 20× objective. The immunofluorescence images were quantified using custom MATLAB scripts. The custom MATLAB script calculated the geometric center for an individual cell, i.e. the arithmetic mean of the locations of all pixels comprising the cell area. Then the distance from this geometric center and angle (0°≤θ≤360°) of every pixel relative to a horizontal axis (θ=0°) was calculated. […] A moment of intensity is calculated for individual pixels and this value is summed for all the pixels in every individual sector. […]

[1] = system: lactate dehydrogenase (LDH); assay: LDH activity colorimetric kinetic assay; settings: EGF 25 ng/mL, 12 hours; not significant
Source text: (§1) To investigate whether iEF has an effect on metabolic function of MDA-MB-231 cells, the activity levels of lactate dehydrogenase (LDH) and succinate dehydrogenase (SDH) were examined. LDH is an enzyme that catalyzes the interconversion of pyruvate to lactate as part of the glycolysis chain (Pelicano H, et al. (2006) Oncogene 25 (34):4633). SDH is an enzyme within Complex II of the mitochondria that is utilized in both the tricarboxylic acid (TCA) cycle as well as oxidative phosphorylation (OXPHOS) (Gottlieb E & Tomlinson IP (2005) Nat Rev Cancer. 5 (11):857). As part of the TCA cycle, SDH catalyzes the oxidation of succinate to fumarate, and as part of OXPHOS, SDH transfers two electrons from flavin adenine dinucleotide into the electron transport chain (Gottlieb E & Tomlinson IP (2005) Nat Rev Cancer. 5 (11):857). To determine whether LDH or SDH activity levels were changing, colorimetric kinetic assays were employed. […]
(§2) 1×10^6 cells/well were plated in 6 well plates in growth media for 12 hours followed by migration media (0.1% FBS) for an additional 12 hours. […] The LDH activity assay kit (Sigma-Aldrich, MAK066) and the SDH activity colorimetric assay kit (Sigma-Aldrich, MAK197) were used to quantify LDH and SDH activity respectively. […] For quantification of LDH and SDH, the protocols provided by the supplier were followed. […]

[2] = system: succinate dehydrogenase (SDH); assay: SDH activity colorimetric kinetic assay; settings: EGF 25 ng/mL, 12 hours; not significant
Source text: as §1, §2

change of LDH activity from control [1]: < 6% | increase of SDH activity [2]: 23%
Substance: epidermal growth factor [EGF]
center of the F-actin polarization ratio (PR) distribution (MDA-MB-231 cells): 0.62
